# Data: patent publication US4511390A, “Aralkylcarbamoyl peptide alcohols” (E. I. Du Pont de Nemours and Company, priority 1983, dated 1985)
# Several values for one entry are separate records, joined by “and”; a condition that tells them apart may be missing. Identical values can stand only once.
# Legend:
# [1] = pKa; format: physicochemical; conditions: two values given
# [2] = system: corn root sections; assay: Nitrate ion uptake by corn root sections measured with radioactive chlorate ion (36ClO3-) as mimic; format: cell-based, Corn (Pioneer Hybrid 3320); conditions: 50 ppm test compound; for activation at 50 ppm: Zea mays, read-out: Ion Uptake (percent increase over control) 36ClO3-
# Procedure: (§1) Corn (Pioneer Hybrid 3320), wheat (Arther), sorghum (SC-599-6), barley (CM-721), rice (m101), and cotton (Tamcot SP-37) seeds were disinfected with a 1% sodium hypochlorite solution and placed in 20.3 cm×30.5 cm×5.1 cm Pyrex glass utility trays which were lined with 4 layers of bleached paper towels and irrigated with 150 mL of 0.2 mM CaCl2 solution. The trays were covered with plastic food wrap, perforated to permit air exchange, and placed in a dark growth room which was maintained at 30° and 90% relative humidity. About 48 hours later, another 150 mL of 0.2 mM CaCl2 solution was added to each tray to maintain water sauration of the paper towels.
# (§2) Two centimeter root sections were cut 0.5 to 2.5 cm from the tip of 3-day-old etiolated seedling roots. Batches of 20 (for corn and cotton), or 40 (for wheat, barley and rice) root sections were tied in cheesecloth bags, leaving a 20-30 cm length of string to facilitate movement between test solutions. Root tissue was washed at 30±1° by immersing the cheesecloth bags in a well-aerated 0.2 mM K2 HPO4 /KH2 PO4 solution, pH 6.0, for 4 hours. During the last 30 minutes of this washing period, 1 mM potassium nitrate solution was introduced to induce nitrate reductase activity. For uniformity, 100 mL washing solution was used for every bag of root sections (about 300 mg fresh tissue).
# Nitrate ion uptake was measured using radioactive chlorate ion (^36 ClO3⊖) as a mimic for nitrate ion (Deane-Drummond et al., Plant Physiol. 70:50-54 (1982)). Uptake was measured by incubating 20 or 40 cheesecloth-bound washed root segments for 30 minutes in 100 mL absorption solution. The absorption solution contained 0.5 mM potassium nitrate, 0.2 mM calcium chloride, 5 mM MES buffer, and 5 mg/L sodium molybdate. This solution was adjusted to pH 6 with potassium hydroxide, and labeled with 10,000 cpm/ml of carrier-free radioactive chlorate ion. Absorption temperatures was maintained at 30±1° in a water bath, and moderate aeration was provided. All test compounds were added to the absorption solution. After the absorption period, the cheesecloth bag containing root sections was rinsed with distilled water for 10 seconds and then immersed in 100 mL of ice-cold, aerated 0.2 mM calcium chloride solution for 20 minutes to remove exchangeable components of absorbed ^36 ClO3⊖. Root sections were then removed from the cheesecloth bags, blotted dry, placed in a preweighed scintillation vial, and weighed to determine fresh tissue weight. One mL water and 10 mL Scinti Verse I (Fisher Scientific Co.) scintillation fluid were added, and radioactivity determined by scintillation counting. The rate of nitrate (^36 ClO3⊖) uptake in micromols per gram fresh weight of tissue per hour was calculated.
# (§3) Test compounds are identified in Table I by Example number, and by the identity of substituents X, Y, Z and R in the following formula: [drawing 23]
# [3] = system: corn root sections; assay: Nitrate ion uptake by corn root sections (nitrate ion specific electrode); format: cell-based, Corn (Pioneer Hybrid 3320); conditions: for Ion Uptake (percent increase over control) NO3-: 50 ppm test compound, corn root sections
# Procedure: as §1, §2
# Nitrate ion uptake into corn roots was also determined by homogenizing root segments previously exposed to the nitrate absorption solution (without added ^36 ClO3⊖) with a precooled glass homogenizer in 5 mL of cold extraction medium. This medium contained 23 mM phosphate buffer pH 8.8, 5 mM cysteine, 2.5 mM EDTA, and 0.1% Neutronyx 600 (Onyx Chemical Co., Jersey City, N.J.). The resulting homogenate was centrifuged at 30,000 xg for 15 minutes, and an aliquot of the resulting supernatant solution reserved for nitrate ion determination, using an Orion nitrate ion specific electrode. The same tissue extract was used for nitrate reductase activity determination (below).
# as §3
# [4] = system: wheat root sections; assay: Nitrate ion uptake by plant root sections, wheat; format: cell-based, wheat (Arther)
# Procedure: as §1
# (§4) Two centimeter root sections were cut 0.5 to 2.5 cm from the tip of 3-day-old etiolated seedling roots. […]
# (§5) Nitrate ion uptake was measured using radioactive chlorate ion (^36 ClO3⊖) as a mimic for nitrate ion (Deane-Drummond et al., Plant Physiol. 70:50-54 (1982)). Uptake was measured by incubating 20 or 40 cheesecloth-bound washed root segments for 30 minutes in 100 mL absorption solution. […] One mL water and 10 mL Scinti Verse I (Fisher Scientific Co.) scintillation fluid were added, and radioactivity determined by scintillation counting. The rate of nitrate (^36 ClO3⊖) uptake in micromols per gram fresh weight of tissue per hour was calculated.
# [5] = system: corn root sections; assay: Ammonium ion uptake by corn root sections (ammonium ion-specific electrode); format: cell-based, Corn (Pioneer Hybrid 3320); conditions: 50 ppm test compound
# Procedure: as §1
# Two centimeter root sections were cut 0.5 to 2.5 cm from the tip of 3-day-old etiolated seedling roots. Batches of 20 (for corn and cotton), or 40 (for wheat, barley and rice) root sections were tied in cheesecloth bags, leaving a 20-30 cm length of string to facilitate movement between test solutions. Root tissue was washed at 30±1° by immersing the cheesecloth bags in a well-aerated 0.2 mM K2 HPO4 /KH2 PO4 solution, pH 6.0, for 4 hours. […]
# Ammonium ion uptake was determined by measuring the disappearance of ammonium ion from an uptake solution containing 1 mmol ammonium chloride, 0.2 mM calcium chloride and 5 mM MES buffer, pH 6.0, with an Orion ammonium ion-specific electrode. […]
# [6] = system: sorghum root sections; assay: Nitrate ion uptake by plant root sections, sorghum; format: cell-based, sorghum (SC-599-6)
# Procedure: as §1, §4, §5
# [7] = system: cotton root sections; assay: Nitrate ion uptake by plant root sections, cotton; format: cell-based, cotton (Tamcot SP-37)
# Procedure: as §1, §4, §5
# [8] = system: corn plants; assay: Field test, grain yield of nitrogen-stressed corn; format: in vivo, corn (Pioneer Hybrid 3535)
# Procedure: Field tests were conducted by seeding corn (Pioneer Hybrid 3535) at a rate sufficient to obtain an excess plant population. The resulting population was thinned after emergence, 14 days after planting, to a density of about 64,000 plants per hectare, with plants about 20 cm apart in each row. The test population was subjected to severe nitrogen stress during development because only 67 kg nitrogen/hectare (60 lb/acre) were applied at planting. Nitrogen stress symptoms were apparent on lower plant leaves 32 days after emergence. Test compounds were applied to plants 34 days after emergence and 26 days prior to anthesis. Average canopy height at time of treatment was 85 cm. The treatments were applied from an acetone/water (1:3) solution with 0.2% added nonionic surfactant, using a hand-held nitrogen-pressurized sprayer. One day following treatment, an application of about 34 kg/ha (30 lb/acre) ammonium nitrate was broadcast on the ground and immediately worked into the root zone by irrigation.
# [9] = system: barley root sections; assay: Nitrate ion uptake by plant root sections, barley; format: cell-based, barley (CM-721)
# Procedure: as §1, §4, §5
# [10] = system: rice root sections; assay: Nitrate ion uptake by plant root sections, rice; format: cell-based, rice (m101)
# Procedure: as §1, §4, §5
# [11] = system: NO3 Reductase; assay: Nitrate reductase activity in extracts of treated corn root sections; format: cell-based, Corn (Pioneer Hybrid 3320); conditions: 50 ppm test compound
# Procedure: as §1, §2
# Nitrate ion uptake into corn roots was also determined by homogenizing root segments previously exposed to the nitrate absorption solution (without added ^36 ClO3⊖) with a precooled glass homogenizer in 5 mL of cold extraction medium. This medium contained 23 mM phosphate buffer pH 8.8, 5 mM cysteine, 2.5 mM EDTA, and 0.1% Neutronyx 600 (Onyx Chemical Co., Jersey City, N.J.). The resulting homogenate was centrifuged at 30,000 xg for 15 minutes, and an aliquot of the resulting supernatant solution reserved for nitrate ion determination, using an Orion nitrate ion specific electrode. […]
# Nitrate reductase activity was determined using a modification of the procedure of Hageman and Huckles- by, Methods Enzymol. […]
structure (smiles),measurement,setting,value
O=C(O)[C@H]1COCN1C(=O)OCc1ccccc1 [3-Carbobenzoxy oxazolidine-4R-carboxylic acid],pKa,[1],3.80 and 3.90
"CC(C)[C@@H](CO)NC(=O)[C@H]1CCCN1C(=O)OCc1ccccc1 [Example 9, N-Carbobenzoxy-D-prolyl-L-valinol]",activation at 50 ppm,[2],37%
O=C(O)[C@@H]1COCN1C(=O)OCc1ccccc1 [3-Carbobenzoxyoxazolidine-4S-carboxylic acid],pKa,[1],4.35 and 4.30
"Cc1ccc(COC(=O)N2CCC[C@H]2C(=O)N[C@H](CO)C(C)C)cc1 [Example 17, N-(p-Methylbenzyloxycarbonyl) -L-prolyl-L-valinol]",activation at 50 ppm,[2],35%
same,Ion Uptake (percent increase over control) NO3-,[3],39%
"CC[C@H](CO)NC(=O)[C@@H]1CCCN1C(=O)OCc1ccccc1 [Example 7, N-Carbobenzoxy-L-prolyl-D-homoalaninol]",activation at 50 ppm,[2],40%
same,Ion Uptake (percent increase over control) NO3-,[3],41%
"CC(C)[C@@H](CO)NC(=O)[C@@H]1CCCN1C(=O)OCc1ccc(Cl)cc1 [Example 16, N-(p-Chlorobenzyloxycarbonyl) -L-prolyl-L-valinol]",activation at 50 ppm,[2],14%
"CC[C@@H](CO)NC(=O)[C@@H]1CCCN1C(=O)OCc1ccccc1 [Example 6, N-Carbobenzoxy-L-prolyl-L-homoalaninol]",activation at 50 ppm,[2],20%
same,Ion Uptake (percent increase over control) NO3-,[3],24%
"CC(C)[C@@H](CO)NC(=O)[C@@H]1CCCN1C(=O)OCc1ccccc1 [Example 2, N-Carbobenzoxy-L-prolyl-L-valinol]",Nitrate Ion Uptake (percent increase over control),"[4]; Wheat root sections, 50 ppm",55%
same,"Nitrate ion uptake enhancement, in words",[4]; wheat,Significant stimulation
same,Ion Uptake (percent increase over control) NH4+,[5],100%
same,Nitrate Ion Uptake (percent increase over control),"[6]; Sorghum root sections, 50 ppm",-5%
same,"Nitrate ion uptake enhancement, in words",[6]; sorghum root tissues,insensitive
same,activation at 50 ppm,[2],56%
same,Ion Uptake (percent increase over control) NO3-,[3],65%
same,Nitrate Ion Uptake (percent increase over control),"[3]; Corn root sections, 50 ppm",65%
same,"Nitrate ion uptake enhancement, in words",[3]; corn,Significant stimulation
same,Optimal media concentration for stimulation of nitrate ion uptake,"[3]; immersed corn root sections, varying test concentrations",about 50 ppm
same,Nitrate Ion Uptake (percent increase over control),"[7]; Cotton root sections, 50 ppm",-10%
same,"Nitrate ion uptake enhancement, in words",[7]; cotton root tissues,insensitive
same,Grain yield (average),"[8]; second round of field tests, 0.035, 0.07 and 0.14 kg/ha, controls average 321",348 bushels/ha
same,Increase in grain yield,"[8]; second round of field tests, application rates 0.035, 0.07 and 0.14 kg/ha, all three",8-10%
same,Grain yield,"[8]; sprayed with 500 ppm (0.14 kg/ha), field grown corn, control 232",248 bushels/ha
same,Increase in grain yield,"[8]; sprayed with 500 ppm (0.14 kg/ha), field grown corn, p=0.05, vs. control",6.3%
same,Nitrate Ion Uptake (percent increase over control),"[9]; Barley root sections, 50 ppm",75%
same,"Nitrate ion uptake enhancement, in words",[9]; barley,Significant stimulation
same,Nitrate Ion Uptake (percent increase over control),"[10]; Rice root sections, 50 ppm",10%
same,"Nitrate ion uptake enhancement, in words",[10]; rice root tissues,insensitive
same,NO3- Reductase (percent increase over control),[11],7%
"CC(C)[C@@H](CO)NC(=O)[C@@H]1CCCN1C(=O)OCc1ccc(F)cc1 [Example 15, N-(4-Fluorobenzyloxycarbonyl)-L-prolyl-L-valinol]",activation at 50 ppm,[2],35%
same,Ion Uptake (percent increase over control) NO3-,[3],30%
"C[C@@H](CO)NC(=O)[C@@H]1CCCN1C(=O)OCc1ccccc1 [Example 5, N-Carbobenzoxy-L-prolyl-L-alaninol]",activation at 50 ppm,[2],20%
"CC(C)[C@@H](CO)NC(=O)[C@@H]1COCN1C(=O)OCc1ccccc1 [Example 12, N-Carbobenzoxy-L-γ-oxaprolyl-L-valinol]",Ion Uptake (percent increase over control) 36ClO3-,[2],18%
"CC(C)[C@H](CO)NC(=O)[C@@H]1CCCN1C(=O)OCc1ccccc1 [Example 8, N-Carbobenzoxy-L-prolyl-D-Valinol]",activation at 50 ppm,[2],12%
"CC(C)[C@H](CO)NC(=O)[C@H]1CCCN1C(=O)OCc1ccccc1 [Example 10, N-Carbobenzoxy-D-prolyl-D-valinol]",activation at 50 ppm,[2],41%
same,Ion Uptake (percent increase over control) NO3-,[3],36%
"CC(C)[C@@H](CO)NC(=O)[C@@H]1[C@@H](C)OCN1C(=O)OCc1ccccc1 [Example 13, N-Carbobenzoxy-5R-methyloxazolidine-4S-carbonyl-L-valinol]",Ion Uptake (percent increase over control) 36ClO3-,[2],20%
"O=C(NCCO)[C@@H]1CCCN1C(=O)OCc1ccccc1 [Example 4, N-Carbobenzoxy-L-prolyl-(β-hydroxyethyl)amide]",Ion Uptake (percent increase over control) 36ClO3-,[2],24%
same,Ion Uptake (percent increase over control) NO3-,[3],30%
same,NO3- Reductase (percent increase over control),[11],4%
C[C@H]1OCN(C(=O)OCc2ccccc2)[C@@H]1C(=O)O [3-carbobenzoxy-5R-methyloxazolidine-4S-carboxylic acid],pKa,[1],4.65 and 4.60
